Consider eight molecules from patent publication US9220706B2, “Inhibition of leukemic stem cells by PP2A activating agents” (Ohio State Innovation Foundation, priority 2012, dated 2015).

Data set [1] has as its system β-catenin-driven (LEF/TCF) transcriptional activity. The experiment in a line: LEF/TCF reporter assay. Particulars: CD34^+/CD38^− CML and 32D-BCR/ABL cells. The class given is cell-based, human. The protocol: LEF/TCF reporter assay. CD34+/CD38− CML cells were transduced with pBAR or pfuBAR (negative control) ®-catenin lentiviral reporter constructs (54), puromycin-selected and treated with the indicated drugs. Luciferase was measured using the Bright-Glo Luciferase system (Promega).

In data set [2] the test system is CML cells (CFSE^max/CD34^+, CD34^+/CD38^−, CD34^+). The experiment in a line: Annexin-V/7-AAD apoptosis staining. Particulars: for effect on FTY720-induced apoptosis of quiescent cells: CD34^+ CML cells, GSK-3β inhibitor with FTY720. Format: cell-based, human. The protocol:
(§1) CFSE-mediated tracking of cell division. Carboxyfluorescein diacetate succinimidyl diester (CFSE)-stained cells (CellTrace CFSE Proliferation Kit: Invitrogen) were cultured in the presence of the indicated drugs (dosed at time zero and at day three), and the cells were harvested after 3 or 6 days in culture, and stained with anti-CD34 PE, Annexin-V V450, and the viability stain 7-AAD (BD Bioscience) to determine the number of viable quiescent cells (CFSEmax/CD34^+/7-AAD− cells) and the percentage of quiescent and apoptosis-committed cells (CFSEmax/CD34+/Annexin V+/7-AAD±). Cells were sorted into dividing and quiescent populations for Western blot analysis. For assessment of mouse quiescent leukemic HSCs, Lin- cells from 8 week-induced SCLtTA/BCR-ABL1 mice were CFSE-stained and used as described above. Quiescent cells (CFSE^max/CD34^+) were reported as a fraction of the initial number of CD34^+ cells.

The target in data set [3] is T1, PP2A (Homo sapiens, UniProt P67775).
T1 construct: PP2Ac assays from whole cell lysates; endogenous in cells; host or cells: CD34+/CD38- and CD34+/CD38+ primary CML and normal bone-marrow cells; immunoprecipitated with Millipore PP2Ac antibody
Particulars: Roberts et al., Cancer Res 2010; cited from earlier work.

Data set [4] deals with T1, PP2A. The experiment in a line: PP2A phosphatase assay. The class given is cell-based. The protocol:
PP2A phosphatase assay. PP2Ac assays from whole cell lysates were carried out using the PP2Ac immunoprecipitation phosphatase assay kit (Millipore). Briefly, protein lysates (50 μg) in 100 μl of 20 mM Hepes. pH 7.0, 100 mM NaCl, 5 μg of PP2Ac antibody (Millipore), and 25 μl of Protein A-agarose were added to 400 μl of 50 mM Tris, pH 7.0, 100 mM CaCl2, and IPs were carried out at 4° C. for 2 h. IPs were used in the phosphatase reaction according to the manufacturer's protocol.

For data set [5], the system named is CFSE^max/CD34^+ CML cells. The experiment in a line: CFSE-mediated tracking of quiescent cells, CML. The class given is cell-based, human. The protocol:
as §1

The subject of the next data set is B lymphocytes. The experiment in a line: B-lymphopenia induction. Conditions: in vivo.
In another data set the target is S1PR1 (Homo sapiens, UniProt P21453). The experiment in a line: S1PR1 internalization. The class given is cell-based.
The subject of the next data set is CD34+/CD38− CML cells. The experiment in a line: CFC/replating assay, CML cells. The class given is cell-based, human. The protocol: (§2) Long term culture-initiating cell (LTC-IC) and Colony-forming cell (CFC)/replating assays. 2×10^6 mononuclear CML cells were cultured with a 1:1 mixture of irradiated (80 Gy) IL-3/G-CSF-producing M2-10B4 and IL-3/KL-producing SI/SI murine fibroblasts in MyeloCult H5100 (StemCell Technologies) supplemented with hydrocortisone. Drugs were present during the first week of culture. Medium was replaced after 7 days, followed by weekly half-medium changes. After 6 weeks, adherent and floating cells were harvested and 5×10^4 cells plated into MethoCult H4435. LTC-IC-derived colonies were scored after 14 days. For CFC/replating, individual 14-day colonies from 10^3-10^5 CD34+/CD38− CML or 0.2×10^3-10^3 leukemic LSK cells plated in 0.9% H4435 or M3234 MethoCult, respectively, containing KL, G-CSF, GM-CSF, IL-3, IL-6, and Epo were replated and scored 2 weeks later.

A further data set relates to CML cells. The experiment in a line: Long term culture-initiating cell (LTC-IC) assay. Particulars: drug during first week of 6-week culture, vs untreated. The class given is cell-based, human. The protocol:
as §2

The test system of data set [6] is normal CD34^+ progenitors. The experiment in a line: Toxicity to normal progenitors. Format: cell-based, human. Conditions: at concentrations that impair Ph^+ HSC survival.
The subject of the next data set is β-catenin. The experiment in a line: β-catenin immunofluorescence. The class given is cell-based, human. Conditions: CD34^+/CD38^− CML, leukemic LSK, and 32D-BCR/ABL cells. An excerpt:
Immunofluorescence and proximity ligation assay. CD34^+/CD38^− cells from CML patient samples or LSK cells derived from induced leukemic mice were sorted, treated in liquid culture with the indicated drugs and cytospun onto glass slides. Slides were fixed in 3.7% formaldehyde, penneabilized with 0.05% Triton X-100, and stained with an Anti-®-catenin primary antibody (Cell signaling), a secondary goat F(ab′) anti-rabbit conjugated to Alexa Fluor 647, and the nuclear stain DAPI (Invitrogen); slides were mounted with Slowfade antifade reagent (Invitrogen). Microphotographs were obtained with a Zeiss LSM 510 confocal laser-scanning microscope with C-Apochromat 63/1.2 W objective. A minimum of three fields for each slide were acquired. For the Proximity Ligation Assay (PLA) CD34+/CD38− CML cells were treated, fixed, and permeabilized as described above. The slides were then simultaneously stained with a mix of mouse anti-PP2A (Millipore) and rabbit anti-SET (Globozyme) antibodies. The PLA procedure (Duolink; Olink Bioscience) was performed according to manufacturer instructions. An average of 20 z-stack ([…]) were captured with a Zeiss LSM 510 confocal laser-scanning microscope with C-Apochromat 63/1.2 W objective; at least three fields/slide were acquired. Three-dimensional projections were generated and positive signals/cell were calculated by ImageJ software (NIH).

Structures can show the parent of a compound that is named as a salt.

T1 sequence (P67775 whole entry): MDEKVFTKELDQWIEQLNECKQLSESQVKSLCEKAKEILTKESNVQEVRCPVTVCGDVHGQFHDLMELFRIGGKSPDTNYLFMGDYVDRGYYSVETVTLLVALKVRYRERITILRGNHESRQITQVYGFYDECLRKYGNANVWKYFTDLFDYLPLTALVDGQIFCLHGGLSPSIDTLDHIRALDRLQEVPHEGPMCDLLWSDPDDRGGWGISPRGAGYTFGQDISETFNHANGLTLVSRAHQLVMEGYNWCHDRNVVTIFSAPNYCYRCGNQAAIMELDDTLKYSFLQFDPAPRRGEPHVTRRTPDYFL
Sequence of S1PR1 (P21453 whole entry, species assumed): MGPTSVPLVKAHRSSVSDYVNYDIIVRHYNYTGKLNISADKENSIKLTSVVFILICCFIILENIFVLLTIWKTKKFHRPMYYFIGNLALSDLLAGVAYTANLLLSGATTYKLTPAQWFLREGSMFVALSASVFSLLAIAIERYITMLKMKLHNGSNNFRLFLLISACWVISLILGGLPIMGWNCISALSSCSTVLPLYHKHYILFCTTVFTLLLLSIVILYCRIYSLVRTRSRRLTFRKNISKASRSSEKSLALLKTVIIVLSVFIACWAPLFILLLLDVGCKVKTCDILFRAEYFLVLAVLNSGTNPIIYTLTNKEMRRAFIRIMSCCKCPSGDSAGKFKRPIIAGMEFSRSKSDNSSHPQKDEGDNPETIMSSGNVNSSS

On to `C=C[C@@]1(C)CC(=O)[C@@H]2[C@@]3(C)CCCC(C)(C)[C@@H]3[C@H](O)[C@H](OC(C)=O)[C@@]2(C)O1` [1,9-dideoxy-forskolin], for which the “β-catenin transcriptional activity (LEF/TCF luciferase)” value in [1] is “markedly impaired”.

For `CCCCCCCCc1ccc(CCC(N)(CO)COP(=O)(O)O)cc1` (stereo not shown) [FTY-P], the “apoptosis of quiescent/HSC-enriched CML cells” value in data set [2] (CFSE^max/CD34^+ or CD34^+/CD38^− CML cells) is recorded as “failed to induce apoptosis”. In addition, at PP2A [3], the PP2A activity induction entry is “did not induce PP2A activity”.

For `[Cl-].[Li+]` [LiCl, lithium chloride], the “effect on FTY720-induced apoptosis of quiescent cells” value in data set [2] is given as “abrogated FTY720-induced apoptosis”.

In the case of `CCCC(N)(CO)CCc1ccc(OCCCCCC(C)C)cc1` (stereo not shown) [OSU-2S], the PP2A activation result on PP2A [4] is reported as “activated PP2A”. Besides, the “effect on CML CFSE^max cells” value in data set [5] (CML n=9) is on record as “significantly reduced”. The B-lymphopenia result in the data set with B lymphocytes is given as “without triggering S1PR1 internalization or inducing B-lymphopenia”. The S1PR1 internalization result at S1PR1 is “without triggering S1PR1 internalization”.

As for `Cn1cc(C2=C(c3ccc(Cl)cc3Cl)C(=O)NC2=O)c2ccccc21` [SB216763], in data set [2], the “effect on FTY720-induced apoptosis of quiescent cells” value was “abrogated FTY720-induced apoptosis”.

As for `Cc1cnc(Nc2ccc(OCCN3CCCC3)cc2)nc1Nc1cccc(S(=O)(=O)NC(C)(C)C)c1` [TG101348], the “reduction in replating efficiency” value in the data set on CD34+/CD38− CML cells is listed as ~75%. Moreover, the “decrease in CFSE^max (quiescent) CML HSCs” value in [5] (CFSE-labeled CD34^+ CML cells, FTY720 at 2.5 μM) is given as 50%. The “β-catenin transcriptional activity (LEF/TCF luciferase)” value in data set [1] is “markedly impaired”. Also, the “inhibition of LTC-ICs” value with CML cells is ~80%. The “toxicity to normal CD34^+ progenitors” value in [6] is “toxicity of TG101348 to normal CD34^+ progenitors”.

Take `Cc1ccc(NC(=O)c2ccc(CN3CCN(C)CC3)cc2)cc1Nc1nccc(-c2cccnc2)n1` [imatinib, imatinib mesylate]: the β-catenin degradation entry in the data set on β-catenin is given as “but not imatinib (n=3) induced β-catenin degradation”.

With `C=C1[C@@H](O)[C@@H]2O[C@]3(CC[C@H](/C=C/[C@@H](C)[C@@H]4CC(C)=C[C@@]5(O[C@H](C[C@@](C)(O)C(=O)O)CC[C@H]5O)O4)O3)CC[C@H]2O[C@@H]1[C@@H](O)C[C@H](C)[C@H]1O[C@@]2(CCCCO2)CC[C@H]1C` [okadaic acid], the “effect on FTY720-induced decrease of CFSE^max HSCs” value in [5] (0.25 nM okadaic acid with FTY720) is on record as “antagonized”.
